Converted amounts (≈) assume the structure as drawn. Structures can show the parent of a compound that is named as a salt.

The nature of series [1]: Stability Test (pH 7 phosphate buffer, 80° C.). Conditions: 20 mg in 1000 ml; for remaining at 4 h: After 4 hours; for remaining at 4 h / remaining at 8 h / remaining at 24 h: read-out: Remaining rate of Test drug; for remaining at 8 h: After 8 hours; for remaining at 24 h: After 24 hours; for Remaining rate of Test drug: Immediately after. It counts as physicochemical. How it is done: Experiment 4 [Stability Test]
Stability test was carried out referring to the method of A. K. Amirjahed et al [J. Pharm. Sci., vol. 66, page 785 (1977)].
20 mg of Compound 8 obtained in the following example and 20 mg of Comparative drug, each weighed accurately, were each dissolved in 0.1N phosphate buffer (a buffer of a suitable amount of 0.1M potassium dihydrogenphosphate mixed with a suitable amount of 0.1M disodium hydrogenphosphate to adjust to pH 7) to make exactly 1000 ml to give standard solutions, respectively. The solution was dispensed into ampules, and they were stored at 80° C. for 4 hours, 8 hours and 24 hours to prepare test solutions.
20 μl of the test solution and 20 μl of the standard solution were each quantified by high performance liquid chromatography method under the following procedure conditions, and the peak areas of Compound 8 and Comparative drug at the storage times were determined, and the remaining rate was calculated by using the following formula, and the results are shown in Table 4.
Detection instrument: Ultraviolet spectrophotometer (Detection wave length: 247 nm)
(§1) Column: ODS column 4.6.phi.×150 mm (TSK Gel ODS 80TM)
Column temperature: A definite temperature in the vicinity of 50° C.
[Compound 8] 1 ml of phosphoric acid and 5 g of sodium dodecylsulfate (SDS) are added to 1000 ml of a mixture of water and acetonitrile (65:35).
[Comparative drug] 1 ml of phosphoric acid and 3 g of sodium dodecylsulfate (SDS) are added to 1000 ml of a mixture of water and acetonitrile (60:40).
Formula: Remaining rate (%)= [formula]

The nature of series [2]: Solubility Test (0.1M phosphate buffer, pH 7). The series is classed as physicochemical. Conditions: aqueous buffer, 0.1M phosphate buffer pH 7, 25° C. The method, then:
Experiment 3 [Solubility Test]
Solubility test was carried out referring to the method of S. Miyazaki et al. [Chem. Pharm. Bull., vol. 23, page 1197 (1975)].
9.511 g of disodium hydrogenphosphate weighed accurately was dissolved in 800 ml of water. The solution was adjusted to pH 7.0 by adding sodium dihydrogenphosphate, and the total volume of the solution was made exactly 1000 ml to give a 0.1M phosphate buffer (pH 7). To 1.0 ml of the buffer solution measured exactly was added an excess amount for the solubility limit of the test drug. The suspension was treated by supersonic waves for 5 minutes and stirred on a water bath at 25° C. for 24 hours. After removal of the insoluble substance by using a membrane filter (0.22 μm), the filtrate was appropriately diluted to give a test solution. Separately, 1 mg of the test drug weighed accurately was dissolved in the eluate to make exactly 100 ml to give a standard solution. The test solution and the standard solution were quantified by high performance liquid chromatography method under the following procedure conditions, and the solubility of the test drug was calculated.
Detection instrument: Ultraviolet spectrophotometer (Detection wave length: 246 nm)
as §1
Column temperature: A definite temperature in the vicinity of 50° C. […]

Series [3] concerns the target T1, fibrinogen receptor (GpIIb/IIIa) on blood platelet (Homo sapiens, UniProt P05106+P08514).
T1 construct: fibrinogen-free blood platelet suspension; endogenous in cells; host or cells: human blood platelets (from citrated venous blood of a healthy donor, gel-filtered)
Put plainly: Human Blood Platelet Fibrinogen Binding Test (125I labeled human fibrinogen, ADP 10 μM). Conditions: human platelet 125I-fibrinogen binding. The method, then:
Experiment 1 [Human Blood Platelet Fibrinogen Binding Test]
The test was carried out referring to the methods of G. A. Marguerie (J. Biol. Chem., vol. 254, pages. 5357-5363, 1979) and N. S. Nicholson (Thromb. Res., vol. 50, pages 567-578, 1991).
Citrated blood (the volume ratio of 3.13% sodium citrate solution and blood is 1:9) was collected from the cubital vein of a healthy human who had not received any drugs known to affect the function of blood platelet within 2 weeks prior to starting the test, and centrifuged at 120× g at room temperature for 15 minutes to give platelet rich plasma (PRP) as a supernatant.
To the above PRP was added one fifth volume of an ACD solution (citric acid/sodium citrate/dextrose), followed by centrifugation at 1200× g for 15 minutes. The precipitate was suspended in a Tyrode's solution ([…], 2 mM Mg^2+), followed by gel filtration using Sepharose 2B column to give a fibrinogen-free blood platelet suspension (1×10^9 /ml). The binding test was carried out by using the fibrinogen-free blood platelet suspension, the solutions of the compounds of Formula (I) in dimethyl sulfoxide which were each adjusted to the desired concentration by diluting with a physiological saline solution as test drugs, ADP (final concentration: 10 μM) and ^125 I labeled human fibrinogen, and then the binding inhibitory rate of the test drug was calculated.
N-(2-Carboxyethyl)-2-(4-amidinobenzoylimino)-3,4-dimethyl-3H-thiazoline-5-carboxamide hydrobromide (described in WO 94/02472; referred to as "Comparative drug" in the following experiments) was used as a comparative drug. The drug solution was prepared in the same manner as described above, and tested as described above.
The results are shown in Table 1 in which the compound numbers are the same as defined in the following examples and are also used in the following experiments.

Series [4] deals with blood platelet aggregation. Put plainly: Human in vitro Blood Platelet Aggregation Inhibition Test (ADP-induced, PRP). The series is classed as cell-based. The following applies: ADP 7 μM, 37° C., 50% inhibition of maximum aggregation. The method, then: Experiment 2 [Human in vitro Blood Platelet Aggregation Inhibition Test]
Citrated blood (the volume ratio of 3.13% sodium citrate solution and blood is 1:9) was collected from the cubital vein of a healthy human who had not received any drugs known to affect the function of blood platelet within 2 weeks prior to starting the test, and centrifuged at 120× g at room temperature for 15 minutes to give platelet rich plasma (PRP) as a supernatant. The remaining precipitate was further centrifuged at 1500× g for 10 minutes to give platelet poor plasma (PPP) as a supernatant. The blood platelet counts of PRP were adjusted to 50~60×10^4 /μl by diluting with PPP.
Blood platelet aggregation was monitored according to the method of Born G. V. R., [Nature, vol. 194, page 927 (1962)] using adenosine diphosphate (produced by Sigma Co.; hereinafter referred to as "ADP") as an aggregation-inducing substance. That is, a solution of the compound of Formula (I) as a test drug in dimethyl sulfoxide was adjusted to the desired concentration with a physiological saline solution. 25 μl of the solution was added to 250 μl of PRP and incubated at 37° C. for 3 minutes, and 25 μl of ADP (final concentration: 7 μM) was added thereto. […]

T1 sequence (P08514 32-887 limits assumed): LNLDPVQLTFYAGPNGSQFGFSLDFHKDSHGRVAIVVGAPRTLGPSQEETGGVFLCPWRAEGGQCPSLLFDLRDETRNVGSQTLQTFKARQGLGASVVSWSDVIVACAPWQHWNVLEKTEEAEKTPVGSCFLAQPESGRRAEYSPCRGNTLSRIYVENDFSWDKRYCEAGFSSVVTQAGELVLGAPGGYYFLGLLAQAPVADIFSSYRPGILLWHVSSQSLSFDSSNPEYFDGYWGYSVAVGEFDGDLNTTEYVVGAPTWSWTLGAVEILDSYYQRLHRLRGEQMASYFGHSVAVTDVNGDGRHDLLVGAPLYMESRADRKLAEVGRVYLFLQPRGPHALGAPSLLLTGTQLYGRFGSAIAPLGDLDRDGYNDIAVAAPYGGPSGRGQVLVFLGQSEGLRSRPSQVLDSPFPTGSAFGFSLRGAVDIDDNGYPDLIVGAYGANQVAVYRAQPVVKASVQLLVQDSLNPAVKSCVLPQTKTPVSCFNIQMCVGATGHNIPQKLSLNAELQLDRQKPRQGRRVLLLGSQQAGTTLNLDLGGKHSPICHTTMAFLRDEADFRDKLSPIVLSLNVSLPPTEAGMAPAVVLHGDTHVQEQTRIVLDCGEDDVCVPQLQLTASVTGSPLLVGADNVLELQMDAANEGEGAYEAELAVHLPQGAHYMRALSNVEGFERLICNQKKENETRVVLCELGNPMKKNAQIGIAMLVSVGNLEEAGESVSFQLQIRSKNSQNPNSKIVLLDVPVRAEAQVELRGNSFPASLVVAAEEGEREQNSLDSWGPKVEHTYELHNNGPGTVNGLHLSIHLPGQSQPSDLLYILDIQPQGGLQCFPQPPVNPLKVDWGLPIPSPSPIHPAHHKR
T1 sequence (P08514 891-1039 partner limits assumed): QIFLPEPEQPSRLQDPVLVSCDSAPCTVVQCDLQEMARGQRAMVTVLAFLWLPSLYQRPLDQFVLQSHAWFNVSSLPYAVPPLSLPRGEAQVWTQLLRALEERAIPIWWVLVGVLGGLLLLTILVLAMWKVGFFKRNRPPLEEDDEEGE
T1 sequence (P05106 27-788): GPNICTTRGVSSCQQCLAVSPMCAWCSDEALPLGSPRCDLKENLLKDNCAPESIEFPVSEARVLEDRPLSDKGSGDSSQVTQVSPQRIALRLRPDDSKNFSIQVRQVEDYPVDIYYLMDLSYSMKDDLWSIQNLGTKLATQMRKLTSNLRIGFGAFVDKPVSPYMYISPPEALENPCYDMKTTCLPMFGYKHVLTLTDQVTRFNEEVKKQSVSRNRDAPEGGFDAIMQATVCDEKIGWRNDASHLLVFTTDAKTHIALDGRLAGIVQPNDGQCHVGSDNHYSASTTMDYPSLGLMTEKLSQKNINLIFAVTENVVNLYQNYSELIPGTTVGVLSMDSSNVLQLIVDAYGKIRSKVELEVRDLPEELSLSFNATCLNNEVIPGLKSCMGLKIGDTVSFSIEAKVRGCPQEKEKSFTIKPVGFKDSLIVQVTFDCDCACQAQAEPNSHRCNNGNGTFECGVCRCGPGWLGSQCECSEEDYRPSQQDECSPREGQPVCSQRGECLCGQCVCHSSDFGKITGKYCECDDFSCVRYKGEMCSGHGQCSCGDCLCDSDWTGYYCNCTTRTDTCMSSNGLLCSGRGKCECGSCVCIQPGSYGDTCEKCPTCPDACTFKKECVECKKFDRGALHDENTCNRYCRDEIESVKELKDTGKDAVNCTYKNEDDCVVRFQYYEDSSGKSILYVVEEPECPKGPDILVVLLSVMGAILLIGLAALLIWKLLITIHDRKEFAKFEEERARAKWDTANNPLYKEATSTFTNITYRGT

For the compound `Cc1c(C(=O)NCCC(=O)O)sc(=NC(=O)c2ccc(C(=N)N)cc2)n1C` [Comparative drug, N-(2-Carboxyethyl)-2-(4-amidinobenzoylimino)-3,4-dimethyl-3H-thiazoline-5-carboxamide hydrobromide, reference compound], in series [1], the share remaining (as a rule, the share of the starting amount still present when the sample was taken) at 4 h is 82.2%; the amount remaining at 8 h came out at 68.4%; the share remaining at 24 h turned out to be 32.3%; the “Remaining rate of Test drug” value is 100%. Also, the solubility (in general, the dissolved amount per volume that the medium holds) at 24 h in series [2] came to 0.03 mg/mL. Further, in series [3], the IC50 (commonly the concentration that inhibits the measured activity by half) is 5 nM. The compound also came in with an IC50 in series [4] of 17 nM.
Turning to `Cc1c(C(=O)NCCC(=O)O)sc(=NC(=O)c2ccc(C(=N)NCCCC(=O)O)cc2)n1C` [Compound 8, N-(2-carboxyethyl)-2-{4-[N-(3-carboxypropyl)amidino]benzoylimino}-3,4-dimethyl-3H-thiazoline-5-carboxamide], in series [1], the fraction remaining at 4 h is 97.8%, the fraction remaining at 8 h amounted to 95.7%, the share remaining at 24 h was 88.9% and the “Remaining rate of Test drug” value was 100%. Further, the solubility at 24 h in series [2] turned out to be 20 mg/mL (≈ 42.1 mM). The IC50 in series [3] was found to be 25.6 nM. The same compound yielded a concentration for half-maximal inhibition (IC50) in series [4] of 39 nM.
In series [3], `Cc1c(C(=O)NCCC(=O)O)sc(=NC(=O)c2ccc(C(=N)NCCC(=O)O)cc2)n1C` [Compound 9, N-(2-carboxyethyl)-2-{4-[N-(2-carboxyethyl)amidino]-benzoylimino}-3,4-dimethyl-3H-thiazoline-5-carboxamide] yielded an IC50 of 16.5 nM.
The same measure, in the same setting: next, `Cc1c(C(=O)NCCC(=O)O)sc(=NC(=O)c2ccc(C(=N)NCCCC(=O)OC3CCCCC3)cc2)n1C` [Compound 11, N-(2-carboxyethyl)-2-{4-[N-(3-cyclohexyloxycarbonylpropyl)amidino]benzoylimino}-3,4-dimethyl-3H-thiazoline-5-carboxamide]: 8.2 nM; `Cc1c(C(=O)NCCC(=O)O)sc(=NC(=O)c2ccc(C(=N)NCCCC(=O)NC3CCCCC3)cc2)n1C` [Compound 12, N-(2-carboxyethyl)-2-{4-[N-(3-cyclohexylaminocarbonylpropyl)amidino]benzoylimino}-3,4-dimethyl-3H-thiazoline-5-carboxamide]: 4.7 nM.
As to `Cc1c(C(=O)NCCC(=O)O)sc(=NC(=O)c2ccc(C(=N)NCCCC(=O)OC3CCCCC3)cc2)n1C(C)C` [Compound 17, N-(2-carboxyethyl)-2-{4-[N-(3-cyclohexyloxycarbonylpropyl)amidino]benzoylimino}-3-isopropyl-4-methyl-3H-thiazoline-5-carboxamide], the IC50 in series [3] was found to be 12.6 nM.
In series [3], `Cc1c(C(=O)NCCC(=O)O)sc(=NC(=O)c2ccc(C(=N)NCCCC(=O)OC3CCCCC3)cc2)n1C1CC1` [Compound 49, N-(2-carboxyethyl)-2-{4-[N-(3-cyclohexyloxycarbonylpropyl)amidino]benzoylimino}-3-cyclopropyl-4-methyl-3H-thiazoline-5-carboxamide] yielded an IC50 of 7.2 nM.
The same measure, in the same setting: next, `Cc1c(C(=O)NCCC(=O)O)sc(=NC(=O)c2ccc(C(=N)NCCCCCC(=O)Nc3ccccc3)cc2)n1C1CC1` [Compound 51, N-(2-carboxyethyl)-2-{4-[N-(5-phenylaminocarbonylpentyl)amidino]benzoylimino}-3-cyclopropyl-4-methyl-3H-thiazoline-5-carboxamide]: 8.6 nM; `Cc1c(C(=O)NCCC(=O)O)sc(=NC(=O)c2ccc(C(=N)NCCCC(=O)OC3CCCCC3)cc2)n1C1CCC1` [Compound 56, N-(2-carboxyethyl)-2-{4-[N-(3-cyclohexyloxycarbonylpropyl)amidino]benzoylimino}-3-cyclobutyl-4-methyl-3H-thiazoline-5-carboxamide]: 11.1 nM.

The record behind these values is US5672712A, “Thiazoline derivatives” (Taisho Pharmaceutical Co., Ltd., priority 1994, dated 1997).
